Test results reported in patent US20200254065A1, “LONG-ACTING GLP-2 ANALOGS” (OPKO Biologics Ltd., priority 2019, published 2020).
Marks after values point to notes of the source that are not given here. Square brackets hold non-standard residues; d marks the D form. Peptide text beside a SMILES is read from it. Nle = CCCC[C@H](N)C(=O)O

Experiments:
small intestine = assay: Intestine weight model in rats; assay type: in vivo, SD rats; details: for Small intestine weight increase over vehicle (%): MAL-FMS-V4 compared to Vehicle 2
How it was run: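 Rat intestinal growth model: conjugates given s.c. at 0.5–8.0 mg/kg peptide dose, as one injection, on days 1 and 3, or every 6 days; small intestine weighed on day 3, 6, 7, 10, 12 or 14. Histology (H&E, duodenum/jejunum/ileum) gave crypt+villus length. Both reported as % increase over vehicle.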

[1] = Stability of GLP-2 analogues on incubation at 37° C. (appearance, O.D. reading, RP-HPLC); assay type: physicochemical; details: following 48 h incubation at 37° C.
Description: The GLP-2 analogues were tested for stability via appearance, O.D. reading (A.280, and A.325) and RP-HPLC (purity, and peak area) following t=0, 1 day, and 48 h incubation at 37° C.

[2] = PK after single IV injection in rats; assay type: in vivo; details: rat, in vivo, iv, 2 mg/kg
Text: Blood samples were collected at 0.5, 2, 4, 8, 12, 24, 36, 48, 72, 96- and 120-hours post-dose administration.

GLP-2 receptor = biological target: T1, GLP-2 receptor (Homo sapiens, UniProt O95838); assay: GLP-2 receptor Cell Based Assay (CBA)
T1 sequence (O95838 1-553): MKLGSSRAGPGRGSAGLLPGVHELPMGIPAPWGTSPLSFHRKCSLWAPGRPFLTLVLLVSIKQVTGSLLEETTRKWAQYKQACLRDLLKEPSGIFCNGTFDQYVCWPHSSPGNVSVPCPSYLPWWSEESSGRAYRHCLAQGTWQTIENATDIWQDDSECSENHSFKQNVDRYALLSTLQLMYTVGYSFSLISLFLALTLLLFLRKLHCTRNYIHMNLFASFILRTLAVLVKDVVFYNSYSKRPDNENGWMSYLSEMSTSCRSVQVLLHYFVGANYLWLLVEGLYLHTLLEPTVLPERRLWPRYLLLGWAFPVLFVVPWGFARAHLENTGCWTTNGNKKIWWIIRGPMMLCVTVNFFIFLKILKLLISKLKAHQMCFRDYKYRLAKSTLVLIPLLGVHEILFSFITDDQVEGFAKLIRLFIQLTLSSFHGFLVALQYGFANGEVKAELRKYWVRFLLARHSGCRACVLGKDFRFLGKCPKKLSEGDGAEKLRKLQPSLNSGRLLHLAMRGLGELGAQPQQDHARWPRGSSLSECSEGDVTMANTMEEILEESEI
Description: Evaluation of in vitro binding affinity of the different peptides was assessed by using Cell Based Assay (CBA) in the presence of escalating doses of the different peptides.

SMILES: CCCC[C@H](NC(=O)[C@H](CCC(=O)O)NC(=O)[C@H](CC(=O)O)NC(=O)[C@H](CO)NC(=O)[C@H](Cc1ccccc1)NC(=O)[C@H](CO)NC(=O)CNC(=O)[C@H](CCC(=O)O)NC(=O)CNC(=O)[C@@H](N)Cc1c[nH]cn1)C(=O)N[C@@H](CC(N)=O)C(=O)N[C@H](C(=O)N[C@H](C(=O)N[C@@H](CC(C)C)C(=O)N[C@@H](CC(=O)O)C(=O)N[C@@H](CC(C)C)C(=O)N[C@@H](CC(C)C)C(=O)N[C@@H](C)C(=O)N[C@@H](C)C(=O)N[C@@H](CCCNC(=N)N)C(=O)N[C@@H](CC(=O)O)C(=O)N[C@@H](Cc1ccccc1)C(=O)N[C@H](C(=O)N[C@@H](CC(N)=O)C(=O)N[C@@H](Cc1c[nH]c2ccccc12)C(=O)N[C@@H](CC(C)C)C(=O)N[C@H](C(=O)N[C@@H](CCC(N)=O)C(=O)N[C@H](C(=O)N[C@@H](CCCCN)C(=O)N[C@H](C(=O)N[C@H](C(=O)N[C@@H](CC(=O)O)C(N)=O)[C@@H](C)O)[C@@H](C)CC)[C@@H](C)O)[C@@H](C)CC)[C@@H](C)CC)[C@@H](C)CC)[C@@H](C)O [Variant 4] (H-HGEGSFSDE[Nle]NTILDLLAARDFINWLIQTKITD-NH2)
- Small intestine weight percent increase over vehicle (FIG. 12) (small intestine; Study 15203, single SC 2 mg/kg peptide content on Day 1, Days 6 and 10): the most favorable results
- Small intestine weight percent increase over vehicle (FIG. 15) (small intestine; Study 15205, single SC 0.5, 2.0 or 8.0 mg/kg, Days 3, 7 and 14): reached maximal acute response at day 3
- Increase of intestine weight over vehicle (%) (small intestine; modified peptides, two injections on days 1 & 3 at 1 mg/kg, intestine weight on day 6): 89%
- Avg. small intestine weight (gr) (small intestine; normal SD rats, injected once at 2 mg/kg peptide dose, 6th day): 7.0 gr
- Small intestine weight increase over vehicle (%) (small intestine; normal SD rats, injected once at 2 mg/kg peptide dose, 6th day, listed as V4, 2 mg/kg): 43.0** %
- Small intestine weight increase over vehicle (%) (small intestine; normal SD rats, injected once at 2 mg/kg peptide dose, 6th day, listed as V4 peptide, 2 mg/kg): the most pronounced effect on the small intestine weight
- Solubility via appearance [1]: V4: clear
- AUC(0-inf) [2]: 36.2 µM·h
- AUC(0-t) [2]: 33.7 µM·h
- Cl/F_obs [2]: 0.015 (μmol/kg)/(μmol/L)/h
- Cmax [2]: 7.1 µM
- Detectability in blood after IV administration [2]: could not be detected 24 hours post injection
- Tmax [2]: 30 min
- Vz/F_obs [2]: 0.068 (μmol/kg)/(μmol/L)
- half-life [2]: 192 min
- EC50 Ratio to Teduglutide (GLP-2 receptor; Table 7): 3.8
- EC50 Ratio to Teduglutide (GLP-2 receptor; Table 8, average of 3 independent CBA): 1.8
